Results: patent US20170198011A1, “COMPOSITION FOR TREATING SEPSIS OR SEPTIC SHOCK COMPRISING THE PEPTIDE ORIGINATED FROM THE SMAD6” (Medpacto, Inc., priority 2011, published 2017)
Where no end group is shown, it is not given here. The star is where a group is joined. Palmitoyl = CCCCCCCCCCCCCCCC(=O)*

Key:
[1] = tested on: lung, liver and spleen of CLP mice; assay: Hematoxylin-eosin staining of tissues of CLP mice; assay type: in vivo, BALB/c mice; conditions: 16 mg/kg, compared to control
Procedure: (§1) For use in assay for therapeutic effects of Smaducin-6 on sepsis, BALB/c mice were subjected to CLP (cecal ligation puncture) to prepare suitable animal models of clinical sepsis. Two hours after CLP operation on the mice, Smaducin-6 was subcutaneously injected at a dose of 8 mg/kg, 12 mg/kg, or 16 mg/kg to the mice, and then three more times at regular intervals of 12 hrs. […] In this context, Smaducin-6 was initially injected at a dose of 16 mg/kg 2, 4, or 10 hrs after CLP operation, and then three more times at regular intervals of 12 hrs. Further, cells from various tissues of CLP mice were stained with hematoxylin-eosin to observe nucleus and cell morphology.

inflammatory cytokines = assay: Blood cytokine levels by ELISA in mice with CLP-induced sepsis; assay type: in vivo; conditions: blood 24 hrs after CLP
From the text: FIG. 6A to 6I show levels of cytokines in blood samples from mice subcutaneously injected twice with Smaducin-6 or scrambled peptides at 2 and 14 hrs after CLP induction, as analyzed by ELISA, the blood samples being taken 24 hrs after CLP induction, and
In animal models of CLP-induced sepsis, Smaducin-6 was examined for ability to downregulate inflammatory cytokines. Blood samples were taken from each experimental group, and various cytokines and chemokines related with inflammatory responses were quantitatively measured. To the mice with CLP-induced sepsis, the peptide of the present invention was injected 2 and 14 hrs after CLP, and blood samples were collected 24 hrs after CLP. Levels of cytokines and chemokines in the blood samples were determined by ELISA using various antibodies according to the manufacturer's protocol. The antibodies used in this ELISA included mouse IL-6 (88-7064), IFN-γ (88-7314), TNF-α (88-7346), IL-4 (88-7044), IL-10 (88-7104), TGF-β1 (88-7344), IL-12 p70 (88-7121) and IL-17A (88-7371) ELISA Ready-SET-GO from eBioscience, Mouse IL-1β ELISA Set (559603) from BD Sciences, Mouse CXCL2/MIP-2 Immunoassay (MM200) from R&D Systems, and Mouse IFN-β ELISA Kit from PBL Biomedical Laboratories.

[2] = tested on: BALB/c mice with CLP-induced sepsis; assay: Survival of mice with CLP-induced sepsis; assay type: in vivo
Procedure: as §1

CXCR2 = CXCR2 surface expression on human neutrophils by FACS; assay type: cell-based; conditions: 100 nM for 2 hrs, then LPS 2 hrs
Procedure: FIG. 7C is a graph showing expression levels of CXCR2 on the surface of human neutrophils treated for 2 hrs with 100 nM scrambled peptides or Smaducin-6 and then for 2 hrs with LPS, as analyzed by FACS, and
To investigate the mechanism in which Smaducin-6 promotes peritoneal neutrophil migration, human neutrophils were treated for 2 hrs with 100 nM scrambled peptides or Smaducin-6 in advance of LPS treatment for 2 hrs. The expression of CXCR2, a chemokine receptor related with neutrophil migration, on the cell surface was analyzed using flow cytometry (FACS). Human neutrophils were isolated from normal human peripheral blood using Histopaque-1077 (Sigma) over a density gradient under the permission of the […] of Ajou University, School of Medicine (Suwon, Korea).

IL-6 = IL-6 immunoblot in spleen and liver of CLP mice; assay type: in vivo; conditions: immunoblotting
GRK2 = assay: LPS-induced GRK2 expression in human neutrophils (immunoblot); assay type: cell-based; conditions: 100 nM for 2 hrs, then LPS 2 hrs
Procedure: To examine how Smaducin-6 interrupts with the LPS-induced downregulation of CXCR2, the levels of G-protein-coupled receptor kinase 2 (GRK2) in human neutrophils and RAW264.7 macrophages were measured. GRK2 is upregualted by LPS, which is known to suppress the expression of CXCR2.

NF-κB = assay: NF-κB-mediated downstream signaling in LPS-stimulated RAW264.7 cells (luciferase, immunoblots); assay type: cell-based, mouse
Procedure: FIG. 4B is a graph showing luciferase activity in RAW264.7 cells transfected with a 5×NF-κB-Luc plasmid after treatment with scrambled peptides (Pal-Scram; 100 nM) or Smaducin-6 and then with LPS,

[3] = tested on: IRAK1-, RIP1- or IKKε-mediated signaling complexes; assay: Co-immunoprecipitation of LPS-induced TLR4 downstream signaling complexes in primary peritoneal macrophages; assay type: cell-based, mice
Procedure: A co-immunoprecipitation assay was carried out as follows. For use as antibodies in co-immunoprecipitation, mouse anti-HA (F-7), mouse anti-c-Myc (9E10), rabbit anti-IκBα (C-21), mouse anti-IRAK1 (F-4), and mouse anti-TRAF6 (D-10) were purchased from Santa Cruz Biotechnology (USA), the antibodies rabbit anti-Pellino-1 and rabbit anti-IRAK4 from Imgenex, the antibodies rabbit anti-Smad6, rabbit anti-MyD88 (D80F5), rabbit anti-IKKα, rabbit anti-phospho-IKKα/β, rabbit anti-RIP1 (D94C12), rabbit anti-IKKi (anti-IKKE; D61F9), rabbit anti-TBK1 (D1B4), rabbit anti-GRK2 from Cell Signaling, and the antibody anti-β-actin from Sigma. Cells were lysed in a lysis buffer (PBS containing 0.5% Triton X-100, 20 mM HEPES (pH 7.4), 150 mM NaCl, 12.5 mM β-glycerol phosphate, 1.5 mM MgCl2, 10 mM NaF, 2 mM DTT, 1 mM Na3O4V, 2 mM EGTA, 1 mM PMSF and protease inhibitor mixture), and harvested by centrifuging 13,000 rpm for 10 min. For immunoprecipitation, the cell lysate were incubated at 4° C. for 12 hrs with protein-A agarose beads and the above-mentioned antibodies. Afterwards, the beads were washed three times with a lysis buffer, and treated with a 2× sample buffer to separate the co-immunoprecipitates therefrom. The co-immunoprecipitates were boiled, followed by SDS-PAGE.
To examine whether Smaducin-6 interrupts the formation of the downstream signaling complex of TLR4, the cells were pre-treated with Smaducin-6 in the same manner as in Example 1, and analyzed for the LPS-induced formation of the signaling complex using a co-immunoprecipitation method. For control, the same experiment was conducted with scrambled peptides.

[4] = injected 2 and 14 hrs after CLP

“Smaducin-6: palmitic acid conjugated to N-terminus of the 20-amino-acid peptide of Smad6 position 422 to 441, GGRALVVRKVPPGYSIKVFD (SEQ ID NO: 1) (Palmitoyl-GGRALVVRKVPPGYSIKVFD)” was tested, and the “morphology of cells and tissues of the lung, the liver and the spleen” value [1] was “morphologically restored”, the “level of IFN-γ in the blood” value (inflammatory cytokines; [4]) was “significantly reduced” and the “level of IL-1β in the blood” value (inflammatory cytokines; [4]) was “significantly reduced”. For the same substance, the “level of IL-6 in the blood” value (inflammatory cytokines; [4]) was “significantly reduced”, the “level of TNF-α in the blood” value (inflammatory cytokines; [4]) was “significantly reduced” and the “level of IL-4 in the blood” value (inflammatory cytokines; versus scrambled peptide) was “no statistically significant changes”. For the same substance, the “level of IL-10 in the blood” value (inflammatory cytokines; versus scrambled peptide) was “no statistically significant changes”, the “level of IL-12 in the blood” value (inflammatory cytokines; versus scrambled peptide) was “no statistically significant changes” and the “level of IL-17A in the blood” value (inflammatory cytokines; versus scrambled peptide) was “no statistically significant changes”. The “level of TGF-β1 in the blood” value (inflammatory cytokines; versus scrambled peptide) was “no statistically significant changes”, the “survival rate of CLP mice” value ([2]; 12 mg/kg subcutaneous, first injection 2 hrs after CLP, three more times every 12 hrs (FIG. 5A)) was 70% and the “survival rate of CLP mice” value ([2]; 16 mg/kg subcutaneous, first injection 2 hrs after CLP, three more times every 12 hrs (FIG. 5A)) was 90%. For the same substance, the “survival rate of CLP mice” value ([2]; 16 mg/kg, initial injection 2 hrs after CLP (FIG. 5B)) was 90%, the “survival rate of CLP mice” value ([2]; 16 mg/kg, initial injection 4 hrs after CLP (FIG. 5B)) was 60% and the “expression of CXCR2 on the cell surface” value (CXCR2) was “kept the expression of CXCR2 at a normal level”. The “IL-6 expression in the spleen and the liver” value (IL-6) was “reduce”, the “LPS-induced GRK2 expression” value (GRK2) was “downregualed” and the “NF-κB-mediated luciferase gene expression” value (NF-κB; 5xNF-κB-Luc) was “suppress”. For the same substance, the IKKα/β phosphorylation (NF-κB; immunoblot) was “suppress”, the IκBα degradation (NF-κB; immunoblot) was “suppress” and the “LPS-induced formation of the IKKε-mediated signaling complex” value [3] was “suppressed”. For the same substance, the “LPS-induced formation of the IRAK1-mediated signaling complex” value [3] was “suppressed” and the “LPS-induced formation of the RIP1-mediated signaling complex” value [3] was “suppressed”.
